Measurements from PubChem BioAssay (NCI).
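Compound exposure: 48 hours, 5 concentrations, 96-well plates. GI50: concentration for 50% inhibition of growth. Definition used: TGI = concentration required for complete inhibition of growth.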

Columns and labels:
Test in all cases: NCI-60 cell line screen, 48 h
SF-295 CNS = test system: SF-295 CNS
HT29 colon = test system: HT29 colon
M14 melanoma = test system: M14 melanoma
OVCAR-8 ovarian = test system: OVCAR-8 ovarian
NCI-H460 lung = test system: NCI-H460 lung
K-562 leukemia = test system: K-562 leukemia
HS 578T breast = test system: HS 578T breast
MCF7 breast = test system: MCF7 breast
T-47D breast = test system: T-47D breast
PC-3 prostate = test system: PC-3 prostate

COC(=O)C1C(=O)O[C@@H](c2ccc3c(c2)OCO3)C1C(=O)OC (mixture of isomers)
TGI (SF-295 CNS): > 100 µM | TGI (HT29 colon): > 100 µM | TGI (M14 melanoma): > 100 µM | TGI (OVCAR-8 ovarian): > 100 µM | TGI (NCI-H460 lung): > 100 µM | TGI (K-562 leukemia): > 100 µM

O=[N+]([O-])c1cccc(C2=NN(c3ccccc3)C3c4cc(Br)ccc4OCC23)c1 (stereo not drawn)
TGI (SF-295 CNS): > 100 µM | TGI (HT29 colon): > 100 µM | TGI (OVCAR-8 ovarian): > 100 µM | TGI (NCI-H460 lung): > 100 µM | TGI (K-562 leukemia): > 100 µM

CCOC(=O)C1C(c2ccc(Cl)cc2Cl)NC(c2ccc(C)cc2)C(C(=O)OC)S1(=O)=O (stereo not drawn)
TGI (SF-295 CNS): > 100 µM | TGI (HT29 colon): > 100 µM | TGI (M14 melanoma): > 100 µM | TGI (OVCAR-8 ovarian): > 100 µM | TGI (NCI-H460 lung): > 100 µM | TGI (K-562 leukemia): > 100 µM

CSC1=Nc2c(c(C)c(C)n2COC(CO)CO)C2=NC(=O)CN12
GI50 (HS 578T breast): > 100 µM | TGI (HS 578T breast): > 100 µM | GI50 (SF-295 CNS): > 100 µM | TGI (SF-295 CNS): > 100 µM | GI50 (HT29 colon): > 100 µM | TGI (HT29 colon): > 100 µM | GI50 (MCF7 breast): > 100 µM | TGI (MCF7 breast): > 100 µM | GI50 (OVCAR-8 ovarian): > 100 µM | TGI (OVCAR-8 ovarian): > 100 µM | GI50 (NCI-H460 lung): > 100 µM | TGI (NCI-H460 lung): > 100 µM | GI50 (T-47D breast): > 100 µM | TGI (T-47D breast): > 100 µM | GI50 (K-562 leukemia): > 100 µM | TGI (K-562 leukemia): > 100 µM | GI50 (PC-3 prostate): > 100 µM | TGI (PC-3 prostate): > 100 µM

COC(=O)OC1C(O[C@H]2C[C@H]3[C@@H]4CC=C5C[C@@H](O)CC[C@]5(C)[C@H]4CC[C@]3(C)[C@H]2[C@H](C)C(=O)CCC(C)C)OCC(O)C1OC1OCC(O)C(O)C1OC(=O)c1ccc(OC)cc1 (stereo partly drawn)
GI50 (HS 578T breast): < 0.00275 µM | TGI (HS 578T breast): 0.0416 µM | GI50 (SF-295 CNS): < 0.00275 µM | TGI (SF-295 CNS): < 0.00275 µM | GI50 (HT29 colon): 0.0415 µM | TGI (HT29 colon): > 27.5 µM | GI50 (MCF7 breast): 0.0108 µM | TGI (MCF7 breast): 0.545 µM | GI50 (OVCAR-8 ovarian): 3.17 µM | TGI (OVCAR-8 ovarian): > 27.5 µM | GI50 (NCI-H460 lung): 0.00957 µM | TGI (NCI-H460 lung): 0.332 µM | GI50 (T-47D breast): 0.0209 µM | TGI (T-47D breast): 0.647 µM | GI50 (PC-3 prostate): 0.00436 µM | TGI (PC-3 prostate): 0.29 µM

COC(=O)/C=C(/C(=O)OC)C1(C)c2cc(C(=O)OC)c(C(=O)OC)c(N)c2C(=N)N1c1ccccc1 (stereo not drawn)
TGI (SF-295 CNS): 40.2 µM | TGI (HT29 colon): 31.7 µM | TGI (M14 melanoma): 33.6 µM | TGI (OVCAR-8 ovarian): 37.9 µM | TGI (NCI-H460 lung): > 100 µM | TGI (K-562 leukemia): 51.7 µM

C[C@]12Cc3cn[nH]c3C(=O)C1CC[C@@H]1C2CC[C@@]2(C)C1CC[C@@H]2O (stereo partly drawn)
TGI (SF-295 CNS): > 100 µM | TGI (HT29 colon): > 100 µM | TGI (M14 melanoma): > 100 µM | TGI (OVCAR-8 ovarian): > 100 µM | TGI (NCI-H460 lung): > 100 µM | TGI (K-562 leukemia): > 100 µM

COc1ccc2c(c1)c(-c1nc(-c3c[nH]c4ncccc34)cs1)cn2CCCN1CCOCC1
GI50 (HS 578T breast): 2.08 µM | TGI (HS 578T breast): 6.92 µM | GI50 (SF-295 CNS): 1.91 µM | TGI (SF-295 CNS): 4.17 µM | GI50 (HT29 colon): 2.22 µM | TGI (HT29 colon): 6.4 µM | GI50 (M14 melanoma): 1.77 µM | TGI (M14 melanoma): 3.58 µM | GI50 (MCF7 breast): 1.43 µM | TGI (MCF7 breast): 8.83 µM | GI50 (NCI-H460 lung): 2.54 µM | TGI (NCI-H460 lung): 6.6 µM | GI50 (T-47D breast): 2.07 µM | TGI (T-47D breast): 7.83 µM | GI50 (K-562 leukemia): 2.08 µM | TGI (K-562 leukemia): 4.95 µM | GI50 (PC-3 prostate): 2.48 µM | TGI (PC-3 prostate): 8.68 µM

O=[N+]([O-])c1ccc(Cl)c2c([N+](=O)[O-])cccc12
TGI (SF-295 CNS): > 10 µM | TGI (HT29 colon): > 10 µM | TGI (MCF7 breast): > 10 µM | TGI (OVCAR-8 ovarian): > 10 µM | TGI (T-47D breast): > 10 µM | TGI (K-562 leukemia): > 10 µM | TGI (PC-3 prostate): > 10 µM
